From publication PMC6978363, “Chaperone mediated detection of small molecule target binding in cells” (Nature Communications, 2020)

Legend:
Experiment in all cases: biochemical
DYRK1B = DYRK1B (Homo sapiens, UniProt Q9Y463)
Text: (§1) The detection of EGFR (another HER family member) was ambiguous because the peptides used to detect it were also present in ERBB2.

LTK = LTK (Homo sapiens, UniProt P29376)
Text: as §1

ERK2 = molecular target: T1, ERK2 (Homo sapiens, UniProt P28482); conditions: read-out: % Inhibition (at 10mM)
T1 construct: gene MAPK1

MYLK2(skMLCK) = MYLK2(skMLCK) (Homo sapiens, UniProt Q9H1R3); conditions: read-out: % Inhibition (at 10mM)
ERK1 = molecular target: T2, ERK1 (Homo sapiens, UniProt P27361); conditions: read-out: % Inhibition (at 10mM)
T2 construct: gene MAPK3
T2 sequence (P27361 whole entry): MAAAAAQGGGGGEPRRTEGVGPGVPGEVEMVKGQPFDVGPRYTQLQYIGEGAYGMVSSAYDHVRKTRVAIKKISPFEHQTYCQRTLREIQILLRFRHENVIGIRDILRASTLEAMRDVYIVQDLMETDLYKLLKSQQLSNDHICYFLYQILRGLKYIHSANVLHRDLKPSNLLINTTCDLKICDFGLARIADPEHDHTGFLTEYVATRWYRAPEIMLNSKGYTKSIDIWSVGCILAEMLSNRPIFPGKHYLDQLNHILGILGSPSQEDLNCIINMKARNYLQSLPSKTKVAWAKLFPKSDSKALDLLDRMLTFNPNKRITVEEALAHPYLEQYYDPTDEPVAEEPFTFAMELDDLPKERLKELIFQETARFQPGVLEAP

TrkA = molecular target: T3, TrkA (Homo sapiens, UniProt P04629); conditions: read-out: % Inhibition (at 10mM)
T3 construct: gene NTRK1

ZIPK = molecular target: T4, ZIPK (Homo sapiens, UniProt O43293); conditions: read-out: % Inhibition (at 10mM)
T4 construct: gene DAPK3
T4 sequence (O43293 whole entry): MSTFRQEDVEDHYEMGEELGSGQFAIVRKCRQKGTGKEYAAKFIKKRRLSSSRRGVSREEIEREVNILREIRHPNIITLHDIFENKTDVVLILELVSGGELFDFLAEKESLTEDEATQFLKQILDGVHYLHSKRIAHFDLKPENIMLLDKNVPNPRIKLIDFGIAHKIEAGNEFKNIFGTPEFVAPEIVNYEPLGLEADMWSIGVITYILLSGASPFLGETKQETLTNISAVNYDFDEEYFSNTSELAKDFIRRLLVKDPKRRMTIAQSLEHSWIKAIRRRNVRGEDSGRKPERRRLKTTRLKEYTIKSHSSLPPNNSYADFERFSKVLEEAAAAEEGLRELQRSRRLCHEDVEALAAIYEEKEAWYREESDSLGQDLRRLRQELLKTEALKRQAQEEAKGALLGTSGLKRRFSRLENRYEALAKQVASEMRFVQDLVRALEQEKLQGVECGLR

CSK = CSK (Homo sapiens, UniProt P41240); conditions: read-out: % Inhibition (at 10mM)
CK1_gamma1 = molecular target: T5, CK1_gamma1 (Homo sapiens, UniProt Q9HCP0); conditions: read-out: % Inhibition (at 10mM)
T5 construct: gene CSNK1G1

MSK1 = molecular target: T6, MSK1 (Homo sapiens, UniProt O75582); conditions: read-out: % Inhibition (at 10mM)
T6 construct: gene RPS6KA5
T6 sequence (O75582 whole entry): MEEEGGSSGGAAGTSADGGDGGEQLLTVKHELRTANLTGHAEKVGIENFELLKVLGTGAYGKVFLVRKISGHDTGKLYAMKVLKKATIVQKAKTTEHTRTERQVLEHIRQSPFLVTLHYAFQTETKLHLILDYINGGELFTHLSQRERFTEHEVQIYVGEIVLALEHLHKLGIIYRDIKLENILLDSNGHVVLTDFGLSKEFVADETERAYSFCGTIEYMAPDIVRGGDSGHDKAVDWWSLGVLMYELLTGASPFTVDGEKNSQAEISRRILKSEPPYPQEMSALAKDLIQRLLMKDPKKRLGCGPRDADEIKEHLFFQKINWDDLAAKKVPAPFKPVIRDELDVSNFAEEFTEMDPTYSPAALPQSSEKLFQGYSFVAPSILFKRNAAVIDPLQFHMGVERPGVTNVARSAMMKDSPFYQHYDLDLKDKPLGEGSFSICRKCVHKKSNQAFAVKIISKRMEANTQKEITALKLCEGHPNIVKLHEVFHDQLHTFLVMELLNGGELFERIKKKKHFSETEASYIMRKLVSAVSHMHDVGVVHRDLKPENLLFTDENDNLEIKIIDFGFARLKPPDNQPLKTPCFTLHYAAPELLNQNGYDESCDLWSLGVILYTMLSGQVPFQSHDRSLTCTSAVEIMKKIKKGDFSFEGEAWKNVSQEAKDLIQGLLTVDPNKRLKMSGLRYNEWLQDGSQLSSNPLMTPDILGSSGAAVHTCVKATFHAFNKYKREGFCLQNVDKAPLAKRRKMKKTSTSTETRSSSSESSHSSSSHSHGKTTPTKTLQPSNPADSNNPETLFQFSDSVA

Flt1 = Flt1 (Homo sapiens, UniProt P17948); conditions: read-out: % Inhibition (at 10mM)
CK1_alpha1L = molecular target: T7, CK1_alpha1L (Homo sapiens, UniProt Q8N752); conditions: read-out: % Inhibition (at 10mM)
T7 construct: gene CSNK1A1L

MKNK1 = MKNK1 (Homo sapiens, UniProt Q9BUB5); conditions: read-out: % Inhibition (at 10mM)
KSR2 = KSR2 (Homo sapiens, UniProt Q6VAB6); conditions: read-out: % Inhibition (at 10mM)
MLK1 = molecular target: T8, MLK1 (Homo sapiens, UniProt P80192); conditions: read-out: % Inhibition (at 10mM)
T8 construct: gene MAP3K9

SGK1 = SGK1 (Homo sapiens, UniProt O00141); conditions: read-out: % Inhibition (at 10mM)
Fgr = Fgr (Homo sapiens, UniProt P09769); conditions: read-out: % Inhibition (at 10mM)
Chain of Fgr (P09769 whole entry): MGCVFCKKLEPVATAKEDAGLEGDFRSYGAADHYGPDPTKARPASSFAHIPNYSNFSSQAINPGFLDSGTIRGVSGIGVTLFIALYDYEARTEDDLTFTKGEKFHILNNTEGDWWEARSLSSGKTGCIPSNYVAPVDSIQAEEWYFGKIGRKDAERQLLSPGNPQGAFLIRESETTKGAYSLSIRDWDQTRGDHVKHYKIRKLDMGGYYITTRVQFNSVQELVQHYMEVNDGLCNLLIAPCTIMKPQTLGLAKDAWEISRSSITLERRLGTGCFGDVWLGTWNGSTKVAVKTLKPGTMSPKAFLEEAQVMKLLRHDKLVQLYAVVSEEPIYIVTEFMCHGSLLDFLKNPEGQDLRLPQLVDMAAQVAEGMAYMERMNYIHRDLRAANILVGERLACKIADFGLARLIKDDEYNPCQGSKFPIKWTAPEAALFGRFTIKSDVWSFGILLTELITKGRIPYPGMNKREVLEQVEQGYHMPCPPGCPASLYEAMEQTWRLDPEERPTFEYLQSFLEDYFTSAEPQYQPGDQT

GSK3_beta = molecular target: T9, GSK3_beta (Homo sapiens, UniProt P49841); conditions: read-out: % Inhibition (at 10mM)
T9 construct: gene GSK3B

CaMKI_delta = molecular target: T10, CaMKI_delta (Homo sapiens, UniProt Q8IU85); conditions: read-out: % Inhibition (at 10mM)
T10 construct: gene CAMK1D
T10 sequence (Q8IU85 whole entry): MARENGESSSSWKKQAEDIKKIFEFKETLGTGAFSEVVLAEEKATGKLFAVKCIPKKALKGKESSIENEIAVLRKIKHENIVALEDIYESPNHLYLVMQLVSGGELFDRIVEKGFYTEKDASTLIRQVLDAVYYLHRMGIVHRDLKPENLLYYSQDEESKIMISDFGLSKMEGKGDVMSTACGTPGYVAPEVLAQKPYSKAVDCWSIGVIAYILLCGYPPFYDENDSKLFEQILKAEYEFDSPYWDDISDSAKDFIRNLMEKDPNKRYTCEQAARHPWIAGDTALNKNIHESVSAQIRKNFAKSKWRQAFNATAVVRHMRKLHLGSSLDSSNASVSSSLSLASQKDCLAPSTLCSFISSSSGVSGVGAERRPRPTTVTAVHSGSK

CLK1 = CLK1 (Homo sapiens, UniProt P49759); conditions: read-out: % Inhibition (at 10mM)
Abl = molecular target: T11, Abl (Homo sapiens, UniProt P00519); conditions: read-out: % Inhibition (at 10mM)
T11 construct: gene ABL1

FGFR2 = FGFR2 (Homo sapiens, UniProt P21802); conditions: read-out: % Inhibition (at 10mM)
HIPK4 = HIPK4 (Homo sapiens, UniProt Q8NE63); conditions: read-out: % Inhibition (at 10mM)
Flt3 = Flt3 (Homo sapiens, UniProt P36888); conditions: read-out: % Inhibition (at 10mM)
PKC_zeta = molecular target: T12, PKC_zeta (Homo sapiens, UniProt Q05513); conditions: read-out: % Inhibition (at 10mM)
T12 construct: gene PRKCZ

PhK_gamma1 = molecular target: T13, PhK_gamma1 (Homo sapiens, UniProt Q16816); conditions: read-out: % Inhibition (at 10mM)
T13 construct: gene PHKG1

CHK1 = molecular target: T14, CHK1 (Homo sapiens, UniProt O14757); conditions: read-out: % Inhibition (at 10mM)
T14 construct: gene CHEK1

TAO2 = molecular target: T15, TAO2 (Homo sapiens, UniProt Q9UL54); conditions: read-out: % Inhibition (at 10mM)
T15 construct: gene TAOK2

DYRK3 = DYRK3 (Homo sapiens, UniProt O43781); conditions: read-out: % Inhibition (at 10mM)
ROCK2 = ROCK2 (Homo sapiens, UniProt O75116); conditions: read-out: % Inhibition (at 10mM)
TSSK2 = TSSK2 (Homo sapiens, UniProt Q96PF2); conditions: read-out: % Inhibition (at 10mM)
ERK5 = molecular target: T16, ERK5 (Homo sapiens, UniProt Q13164); conditions: read-out: % Inhibition (at 10mM)
T16 construct: gene MAPK7
T16 sequence (Q13164 whole entry): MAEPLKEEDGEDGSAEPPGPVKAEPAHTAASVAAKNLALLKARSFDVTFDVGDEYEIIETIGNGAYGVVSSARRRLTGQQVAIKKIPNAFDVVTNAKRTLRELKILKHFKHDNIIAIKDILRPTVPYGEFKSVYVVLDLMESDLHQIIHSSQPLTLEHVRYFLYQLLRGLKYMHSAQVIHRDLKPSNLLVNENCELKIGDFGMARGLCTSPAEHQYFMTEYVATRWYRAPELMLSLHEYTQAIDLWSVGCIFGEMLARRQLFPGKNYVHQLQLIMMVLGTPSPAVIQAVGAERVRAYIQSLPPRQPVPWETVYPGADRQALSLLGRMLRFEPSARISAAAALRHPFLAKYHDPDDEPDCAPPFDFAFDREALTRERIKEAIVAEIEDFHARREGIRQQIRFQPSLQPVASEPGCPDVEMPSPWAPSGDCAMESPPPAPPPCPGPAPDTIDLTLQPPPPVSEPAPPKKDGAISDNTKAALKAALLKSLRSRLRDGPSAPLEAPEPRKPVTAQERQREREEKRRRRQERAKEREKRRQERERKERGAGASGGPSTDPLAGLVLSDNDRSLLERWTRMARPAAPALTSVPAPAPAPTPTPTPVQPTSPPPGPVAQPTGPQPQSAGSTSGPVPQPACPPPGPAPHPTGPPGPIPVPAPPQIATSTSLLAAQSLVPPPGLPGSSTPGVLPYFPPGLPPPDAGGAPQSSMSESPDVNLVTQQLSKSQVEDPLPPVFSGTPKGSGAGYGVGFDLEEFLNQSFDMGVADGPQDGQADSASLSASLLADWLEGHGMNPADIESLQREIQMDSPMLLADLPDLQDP

Aurora_B = molecular target: T17, Aurora_B (Homo sapiens, UniProt Q96GD4); conditions: read-out: % Inhibition (at 10mM)
T17 construct: gene AURKB

GRK6 = GRK6 (Homo sapiens, UniProt P43250); conditions: read-out: % Inhibition (at 10mM)
MARK1 = MARK1 (Homo sapiens, UniProt Q9P0L2); conditions: read-out: % Inhibition (at 10mM)
Chain of MARK1 (Q9P0L2 whole entry): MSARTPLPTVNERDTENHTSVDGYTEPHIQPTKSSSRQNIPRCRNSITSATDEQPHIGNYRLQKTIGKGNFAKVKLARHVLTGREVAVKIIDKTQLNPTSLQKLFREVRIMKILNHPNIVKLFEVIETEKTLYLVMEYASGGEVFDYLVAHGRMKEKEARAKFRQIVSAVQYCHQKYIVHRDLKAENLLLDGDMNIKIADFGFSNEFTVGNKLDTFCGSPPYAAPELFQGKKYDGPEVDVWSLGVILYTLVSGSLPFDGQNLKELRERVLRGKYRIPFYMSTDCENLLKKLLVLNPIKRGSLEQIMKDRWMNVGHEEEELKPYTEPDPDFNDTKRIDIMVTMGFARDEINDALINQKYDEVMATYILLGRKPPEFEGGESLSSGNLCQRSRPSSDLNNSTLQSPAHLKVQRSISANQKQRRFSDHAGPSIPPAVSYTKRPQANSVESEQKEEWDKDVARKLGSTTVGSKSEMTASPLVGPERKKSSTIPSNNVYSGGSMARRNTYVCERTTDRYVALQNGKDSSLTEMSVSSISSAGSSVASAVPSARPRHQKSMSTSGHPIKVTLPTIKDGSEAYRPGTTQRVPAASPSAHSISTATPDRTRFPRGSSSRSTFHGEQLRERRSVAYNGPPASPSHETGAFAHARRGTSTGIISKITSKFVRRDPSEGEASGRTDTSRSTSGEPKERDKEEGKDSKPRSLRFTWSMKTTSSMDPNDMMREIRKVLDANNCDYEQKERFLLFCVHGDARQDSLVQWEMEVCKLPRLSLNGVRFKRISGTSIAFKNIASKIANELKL

Srm = molecular target: T18, Srm (Homo sapiens, UniProt Q9H3Y6); conditions: read-out: % Inhibition (at 10mM)
T18 construct: gene SRMS

MST3 = molecular target: T19, MST3 (Homo sapiens, UniProt Q9Y6E0); conditions: read-out: % Inhibition (at 10mM)
T19 construct: gene STK24

Chain of LTK (P29376 whole entry): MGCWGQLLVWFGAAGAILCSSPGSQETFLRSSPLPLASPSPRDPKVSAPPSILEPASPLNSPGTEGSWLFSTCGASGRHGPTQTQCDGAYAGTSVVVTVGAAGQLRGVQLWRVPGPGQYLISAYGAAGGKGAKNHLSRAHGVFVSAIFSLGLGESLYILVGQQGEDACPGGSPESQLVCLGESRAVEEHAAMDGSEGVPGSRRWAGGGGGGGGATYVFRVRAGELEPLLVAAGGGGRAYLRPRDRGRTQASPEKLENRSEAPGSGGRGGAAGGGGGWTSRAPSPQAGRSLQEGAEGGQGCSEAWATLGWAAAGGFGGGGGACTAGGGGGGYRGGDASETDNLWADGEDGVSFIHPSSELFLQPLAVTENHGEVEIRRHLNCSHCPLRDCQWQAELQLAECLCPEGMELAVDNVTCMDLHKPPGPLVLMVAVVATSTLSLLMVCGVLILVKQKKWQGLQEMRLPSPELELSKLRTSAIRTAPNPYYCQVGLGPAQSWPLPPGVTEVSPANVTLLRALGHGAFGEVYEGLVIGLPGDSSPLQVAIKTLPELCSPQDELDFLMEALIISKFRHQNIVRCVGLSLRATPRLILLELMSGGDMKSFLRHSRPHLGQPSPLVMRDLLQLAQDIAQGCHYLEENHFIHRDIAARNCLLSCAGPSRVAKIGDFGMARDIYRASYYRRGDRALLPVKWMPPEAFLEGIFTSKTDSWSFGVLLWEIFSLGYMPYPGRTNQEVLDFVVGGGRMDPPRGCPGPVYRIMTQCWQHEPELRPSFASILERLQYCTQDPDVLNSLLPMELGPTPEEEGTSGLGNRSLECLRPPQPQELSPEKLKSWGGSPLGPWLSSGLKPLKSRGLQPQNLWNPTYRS

inhibition at 10 µM (DYRK1B): 3% | inhibition at 10 µM (LTK): 0.5% | inhibition (ERK2): 12.5% | inhibition (MYLK2(skMLCK)): -3% | inhibition (ERK1): 3% | inhibition (TrkA): 29% | inhibition (ZIPK): 7% | inhibition (CSK): 56.5% | inhibition (CK1_gamma1): 2.5% | inhibition (MSK1): 2.5% | inhibition (Flt1): -1.5% | inhibition (CK1_alpha1L): 3% | inhibition (MKNK1): 6% | inhibition (KSR2): 0% | inhibition (MLK1): 6.5% | inhibition (SGK1): 2% | inhibition (Fgr): 65% | inhibition (GSK3_beta): 9% | inhibition (CaMKI_delta): 0% | inhibition (CLK1): 10.5% | inhibition (Abl): 9% | inhibition (FGFR2): 2% | inhibition (HIPK4): 5.5% | inhibition (Flt3): 27% | inhibition (PKC_zeta): 8.5% | inhibition (PhK_gamma1): 7.5% | inhibition (CHK1): 4.5% | inhibition (TAO2): -5% | inhibition (DYRK3): -0.5% | inhibition (ROCK2): -0.5% | inhibition (TSSK2): 10.5% | inhibition (ERK5): 0.5% | inhibition (Aurora_B): 68% | inhibition (GRK6): -1.5% | inhibition (MARK1): 10% | inhibition (Srm): 13.5% | inhibition (MST3): 7%
Compound: CC(C)(O)CC(=O)NCCn1ccc2ncnc(Nc3ccc(Oc4cccc(C(F)(F)F)c4)c(Cl)c3)c21 [TAK-285]
